In general, inhibition refers to the change of the read-out against control, counted positive when it falls.

The structures appear in SMILES notation.

We go through 1 compound from PMC6934184, “Selective DNA-PKcs inhibition extends the therapeutic index of localized radiotherapy and chemotherapy” (The Journal of Clinical Investigation, 2019).

This test concerns the target T1, TYRO3 (RSE) (Homo sapiens, UniProt Q06418).
T1 construct: purchased Thermo Fisher Scientific (Life Technologies) SelectScreen
Briefly: SelectScreen Z'LYTE. It is filed as biochemical. An outline of the steps:
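Compound tested in SelectScreen activity assays, Z'LYTE for CSF1R, CDK1/cyclin B and MAP2K6 and Adapta for CAMK1. ATP for CAMK1 was listed as 10, and Km app was used for CSF1R. Results are expressed in percent.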

T1 sequence (Q06418 41-890): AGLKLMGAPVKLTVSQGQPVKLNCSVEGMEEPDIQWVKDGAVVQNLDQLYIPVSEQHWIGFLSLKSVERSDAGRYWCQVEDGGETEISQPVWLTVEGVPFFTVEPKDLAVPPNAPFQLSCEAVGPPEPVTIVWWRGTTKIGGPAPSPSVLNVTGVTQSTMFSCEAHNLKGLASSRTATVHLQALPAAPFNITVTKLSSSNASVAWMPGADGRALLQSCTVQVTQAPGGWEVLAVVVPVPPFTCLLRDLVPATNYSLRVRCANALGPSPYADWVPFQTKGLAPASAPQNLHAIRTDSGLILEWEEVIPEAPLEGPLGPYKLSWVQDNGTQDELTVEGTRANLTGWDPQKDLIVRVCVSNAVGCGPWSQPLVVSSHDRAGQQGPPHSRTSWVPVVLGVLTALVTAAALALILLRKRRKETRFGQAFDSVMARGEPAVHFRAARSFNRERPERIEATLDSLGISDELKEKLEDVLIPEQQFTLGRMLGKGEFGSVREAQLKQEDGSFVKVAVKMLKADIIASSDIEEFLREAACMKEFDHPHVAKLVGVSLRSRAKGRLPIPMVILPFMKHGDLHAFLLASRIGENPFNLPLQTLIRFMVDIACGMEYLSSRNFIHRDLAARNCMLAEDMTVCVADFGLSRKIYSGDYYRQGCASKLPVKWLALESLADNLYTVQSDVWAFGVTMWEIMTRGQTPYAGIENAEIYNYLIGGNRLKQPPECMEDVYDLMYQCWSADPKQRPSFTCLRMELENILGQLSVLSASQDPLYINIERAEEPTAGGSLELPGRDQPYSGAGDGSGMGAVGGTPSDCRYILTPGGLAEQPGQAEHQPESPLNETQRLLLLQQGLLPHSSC

As to `CN(C(=O)CN1CCOCC1)c1ccc2sc3c(-c4cccc5c(=O)cc(N6CC7CCC(C6)O7)oc45)cccc3c2c1` [NU5455], the inhibition at 1 µM was -5.1%.
